Laboratory results: PubChem BioAssay AID2060350 (Molecular Pharmacology Branch, DTP, NCI, 2025)

Test system: PDC 521955-158-R6-J3 spheroids, viability
Assay: Anticancer human tumor 521955-158-R6-J3-PDC patient-derived pancreatic carcinoma cell line growth inhibition [TAK]
Conditions: spheroids with HUVEC and MSC; for IC50: curve of first compound; for viability, T/C: stronger effect = lower value
Procedure, shortened: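 Tumor cells were grown as spheroids with HUVEC and hMSC (60:25:15) and treated with targeted agents combined with TAK-243 or ipatasertib. Drugs were tested in half-log steps down from near the clinical Cmax, or from 10 microM where Cmax was unknown.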

[1] = second compound 0.3 µM, first compound 0.0316 µM
[2] = second compound 0.3 µM, first compound 0.1 µM
[3] = second compound 0.3 µM, first compound 0.316 µM
[4] = second compound 0.3 µM, first compound 1 µM
[5] = second compound 0.949 µM, first compound 0.0316 µM
[6] = second compound 0.949 µM, first compound 0.1 µM
[7] = second compound 0.949 µM, first compound 0.316 µM
[8] = second compound 0.949 µM, first compound 1 µM
[9] = second compound 3 µM, first compound 0.0316 µM
[10] = second compound 3 µM, first compound 0.1 µM
[11] = second compound 3 µM, first compound 0.316 µM
[12] = second compound 3 µM, first compound 1 µM
[13] = second compound 9.49 µM, first compound 0.0316 µM
[14] = second compound 9.49 µM, first compound 0.1 µM
[15] = second compound 9.49 µM, first compound 0.316 µM
[16] = second compound 9.49 µM, first compound 1 µM
[17] = second compound 30 µM, first compound 0.0316 µM
[18] = second compound 30 µM, first compound 0.1 µM
[19] = second compound 30 µM, first compound 0.316 µM
[20] = second compound 30 µM, first compound 1 µM
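Also: spheroids exposed to drugs for 7 days before readout.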
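For viability, T/C in this document: 100% = DMSO vehicle control viability.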

Q: How did the IC50 (second compound 0.3 µM) turn out when `COc1c(OCCCN2CCOCC2)ccc2c3n(c(=NC(=O)c4cnc(N)nc4)nc12)CCN3` + CC(C)NCC(C(=O)N1CCN(c2ncnc3c2C(C)CC3O)CC1)c1ccc(Cl)cc1 was run?
A: 0.0384 µM

Q: What about the IC50 (second compound 0.949 µM) of the same molecule?
A: 0.00743 µM

Q: And the IC50 (second compound 3 µM)?
A: < 0.00316 µM

Q: What about the IC50 (second compound 9.49 µM) of the same molecule?
A: < 0.00316 µM

Q: And the IC50 (second compound 30 µM)?
A: < 0.00316 µM

Q: What about the viability, T/C (second compound 0.3 µM, first compound 0.00316 µM) of the same molecule?
A: 70.9%

Q: What about the viability, T/C (second compound 0.3 µM, first compound 0.01 µM) of the same molecule?
A: 63.6%

Q: And the viability, T/C [1]?
A: 51.2%

Q: What about the viability, T/C [2] of the same molecule?
A: 41%

Q: And the viability, T/C [3]?
A: 27%

Q: And the viability, T/C [4]?
A: 21.6%

Q: And the viability, T/C (second compound 0.949 µM, first compound 0.00316 µM)?
A: 52.4%

Q: And the viability, T/C (second compound 0.949 µM, first compound 0.01 µM)?
A: 48.2%

Q: And the viability, T/C [5]?
A: 44.9%

Q: What about the viability, T/C [6] of the same molecule?
A: 37.4%

Q: What about the viability, T/C [7] of the same molecule?
A: 25.9%

Q: What about the viability, T/C [8] of the same molecule?
A: 20.2%

Q: What about the viability, T/C (second compound 3 µM, first compound 0.00316 µM) of the same molecule?
A: 46.8%

Q: What about the viability, T/C (second compound 3 µM, first compound 0.01 µM) of the same molecule?
A: 43.5%

Q: What about the viability, T/C [9] of the same molecule?
A: 37.8%

Q: What about the viability, T/C [10] of the same molecule?
A: 32.9%

Q: And the viability, T/C [11]?
A: 25.7%

Q: What about the viability, T/C [12] of the same molecule?
A: 19.5%

Q: And the viability, T/C (second compound 9.49 µM, first compound 0.00316 µM)?
A: 43.3%

Q: What about the viability, T/C (second compound 9.49 µM, first compound 0.01 µM) of the same molecule?
A: 37.5%

Q: And the viability, T/C [13]?
A: 35.8%

Q: And the viability, T/C [14]?
A: 29.9%

Q: And the viability, T/C [15]?
A: 22.8%

Q: What about the viability, T/C [16] of the same molecule?
A: 19.8%

Q: What about the viability, T/C (second compound 30 µM, first compound 0.00316 µM) of the same molecule?
A: 41.1%

Q: What about the viability, T/C (second compound 30 µM, first compound 0.01 µM) of the same molecule?
A: 34.5%

Q: What about the viability, T/C [17] of the same molecule?
A: 37%

Q: And the viability, T/C [18]?
A: 24.6%

Q: And the viability, T/C [19]?
A: 18%

Q: And the viability, T/C [20]?
A: 15.4%

Q: For `Cc1nc(NC(=O)N2CCCC2C(N)=O)sc1-c1ccnc(C(C)(C)C(F)(F)F)c1` (stereo not given) + CC(C)NCC(C(=O)N1CCN(c2ncnc3c2C(C)CC3O)CC1)c1ccc(Cl)cc1, which IC50 (second compound 0.3 µM) is on record?
A: > 10 µM

Q: And the IC50 (second compound 0.949 µM)?
A: 4.49 µM

Q: What about the IC50 (second compound 3 µM) of the same molecule?
A: 2.82 µM

Q: What about the IC50 (second compound 9.49 µM) of the same molecule?
A: 0.509 µM

Q: What about the IC50 (second compound 30 µM) of the same molecule?
A: 0.481 µM

Q: What about the viability, T/C [1] of the same molecule?
A: 70.5%

Q: And the viability, T/C [2]?
A: 77%

Q: And the viability, T/C [3]?
A: 72.7%

Q: What about the viability, T/C [4] of the same molecule?
A: 63.1%

Q: And the viability, T/C (second compound 0.3 µM, first compound 3.16 µM)?
A: 66.4%

Q: And the viability, T/C (second compound 0.3 µM, first compound 10 µM)?
A: 55.6%

Q: And the viability, T/C [5]?
A: 63.4%

Q: What about the viability, T/C [6] of the same molecule?
A: 64%

Q: What about the viability, T/C [7] of the same molecule?
A: 57.3%

Q: And the viability, T/C [8]?
A: 55.3%

Q: And the viability, T/C (second compound 0.949 µM, first compound 3.16 µM)?
A: 54.3%

Q: What about the viability, T/C (second compound 0.949 µM, first compound 10 µM) of the same molecule?
A: 44.9%

Q: What about the viability, T/C [9] of the same molecule?
A: 57.2%

Q: And the viability, T/C [10]?
A: 62.7%

Q: What about the viability, T/C [11] of the same molecule?
A: 58.8%

Q: What about the viability, T/C [12] of the same molecule?
A: 51.5%

Q: What about the viability, T/C (second compound 3 µM, first compound 3.16 µM) of the same molecule?
A: 51.2%

Q: What about the viability, T/C (second compound 3 µM, first compound 10 µM) of the same molecule?
A: 38.9%

Q: What about the viability, T/C [13] of the same molecule?
A: 63%

Q: What about the viability, T/C [14] of the same molecule?
A: 58.4%

Q: And the viability, T/C [15]?
A: 48.2%

Q: And the viability, T/C [16]?
A: 47.2%

Q: And the viability, T/C (second compound 9.49 µM, first compound 3.16 µM)?
A: 46.9%

Q: And the viability, T/C (second compound 9.49 µM, first compound 10 µM)?
A: 35.1%

Q: And the viability, T/C [17]?
A: 60%

Q: What about the viability, T/C [18] of the same molecule?
A: 49.2%

Q: What about the viability, T/C [19] of the same molecule?
A: 54.5%

Q: And the viability, T/C [20]?
A: 46.8%

Q: And the viability, T/C (second compound 30 µM, first compound 3.16 µM)?
A: 38.9%

Q: What about the viability, T/C (second compound 30 µM, first compound 10 µM) of the same molecule?
A: 26.2%
